Data: US10189809B2, “SGC stimulators” (Ironwood Pharmaceuticals, Inc., priority 2010, dated 2019)
Read-outs that look alike come from different tables or passages of the source.

Tests used:
[1] = target: T1, soluble guanylate cyclase (sGC) (Homo sapiens (Human), UniProt Q02108+Q02153); experiment: sGC-HEK-cGMP assay run in the absence of SNP (HEK WC assay); format: cell-based; conditions: for HEK WC Assay (fold increase at 10 μM): compound at 10 μM; for HEK WC Assay (fold increase at 10 μM) / HEK WC Assay (fold increase at 30 μM): no SNP, increase in the sGC receptor activity; for HEK WC Assay (fold increase at 30 μM) / HEK WC Assay (fold increase at 30 μM in the absence of SNP): compound at 30 μM
T1 sequence (Q02153 whole entry): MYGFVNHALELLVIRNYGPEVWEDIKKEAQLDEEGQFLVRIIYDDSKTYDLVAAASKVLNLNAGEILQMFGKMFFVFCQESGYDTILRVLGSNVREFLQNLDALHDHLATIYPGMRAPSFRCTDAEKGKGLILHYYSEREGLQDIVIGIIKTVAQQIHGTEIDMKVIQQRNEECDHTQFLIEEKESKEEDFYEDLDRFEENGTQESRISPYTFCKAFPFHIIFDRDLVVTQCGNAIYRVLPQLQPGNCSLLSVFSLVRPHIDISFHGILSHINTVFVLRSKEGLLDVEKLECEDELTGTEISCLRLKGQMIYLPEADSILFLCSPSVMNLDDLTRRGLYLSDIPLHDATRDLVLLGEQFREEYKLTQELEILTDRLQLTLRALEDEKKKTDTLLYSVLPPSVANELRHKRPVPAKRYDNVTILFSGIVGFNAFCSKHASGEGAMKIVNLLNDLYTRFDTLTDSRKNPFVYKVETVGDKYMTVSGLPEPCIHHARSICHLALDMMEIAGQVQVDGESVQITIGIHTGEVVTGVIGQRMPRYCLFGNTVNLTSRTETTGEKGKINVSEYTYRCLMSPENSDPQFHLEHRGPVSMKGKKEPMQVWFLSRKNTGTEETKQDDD
T1 sequence (Q02108 whole entry): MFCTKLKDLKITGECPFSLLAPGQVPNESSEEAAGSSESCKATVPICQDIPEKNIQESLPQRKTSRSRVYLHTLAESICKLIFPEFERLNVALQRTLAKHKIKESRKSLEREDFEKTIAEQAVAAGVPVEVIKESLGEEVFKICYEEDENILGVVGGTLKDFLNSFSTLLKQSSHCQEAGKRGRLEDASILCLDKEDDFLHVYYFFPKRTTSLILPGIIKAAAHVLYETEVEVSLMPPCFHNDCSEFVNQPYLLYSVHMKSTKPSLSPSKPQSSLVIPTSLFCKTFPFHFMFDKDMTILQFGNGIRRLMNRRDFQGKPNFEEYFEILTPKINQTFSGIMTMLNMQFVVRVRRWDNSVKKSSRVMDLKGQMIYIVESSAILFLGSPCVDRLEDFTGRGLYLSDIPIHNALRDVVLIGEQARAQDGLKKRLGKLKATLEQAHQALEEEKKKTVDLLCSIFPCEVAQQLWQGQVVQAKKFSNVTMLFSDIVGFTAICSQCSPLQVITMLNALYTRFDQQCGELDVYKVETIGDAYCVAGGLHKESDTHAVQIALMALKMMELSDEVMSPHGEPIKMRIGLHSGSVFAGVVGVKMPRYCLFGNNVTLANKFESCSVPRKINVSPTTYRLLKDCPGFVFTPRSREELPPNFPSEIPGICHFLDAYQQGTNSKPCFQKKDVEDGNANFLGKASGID
How it was run: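 HEK293 cells with endogenous sGC, preincubated 15 min at 37° C with 0.5 mM IBMX, then exposed to test compound 10 min at 37° C without SNP. Cells lysed in 0.1 M HCl; cGMP quantified by LC/MS against a standard curve. EC50 from concentration-response curves.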

[2] = target: T1, soluble guanylate cyclase (sGC); experiment: sGC-HEK-cGMP assay run with SNP incubation (HEK WC assay); format: cell-based; conditions: for Emax at 10 µM: read-out: HEK WC Assay (% Emax at 10 uM/with 10 uM SNP); for Emax at 30 µM: read-out: HEK WC Assay (% Emax at 30 uM/with 10 uM SNP); for HEK WC Assay (fold increase at 30 μM in the presence of 10 μM SNP): compound at 30 μM; for EC50: in the presence of 10 uM SNP
How it was run: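 HEK293 cells with endogenous sGC were pretreated with 0.5 mM IBMX for 15 min at 37 °C, then exposed to test compound plus sodium nitroprusside for 10 min at 37 °C.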

[3] = target: Human soluble guanylate cyclase enzyme (hsGC) (Homo sapiens (Human), UniProt Q02108+Q02153); experiment: Purified human sGC enzyme activity assay; format: biochemical; conditions: for sGC Enzyme (specific activity at 10 μM) / sGC Enzyme (fold increase at 10 μM without SNP): 10 μM compound; for sGC Enzyme (specific activity at 30 μM) / sGC Enzyme (fold increase at 30 μM without SNP): 30 μM compound
Chain of Human soluble guanylate cyclase enzyme (hsGC) (Q02153 whole entry): as the sequence (Q02153 whole entry) above
Chain of Human soluble guanylate cyclase enzyme (hsGC) (Q02108 whole entry): as the sequence (Q02108 whole entry) above
How it was run: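 Purified human sGC (5 ng) incubated 30 min at 37° C with compound at 10 or 30 μM final in pH 8.0 Tris with 300 μM GTP, 2 mM MgCl2, 2 mM DTT and 1 mM IBMX, then stopped with cold methanol. cGMP quantified against a standard curve. Specific activity (nmol cGMP/mg sGC/min) expressed as fold-change over DMSO control.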

Thoracic aortic rings = experiment: Alternative thoracic aortic rings assay (Example 19b; resting tension as 100% inhibition); design: species or system rat; conditions: Rattus norvegicus, Table 10B; for inhibition at 1 µM: read-out: Percent Relaxation at 1 μM; for inhibition at 3 µM: read-out: Percent Relaxation at 3 μM; for EC50: read-out: Aortic Ring EC50; for inhibition at 10 µM: read-out: Percent Relaxation at 10 μM
Method: Thoracic aortic rings were dissected from anesthetized (isoflurane) male Sprague-Dawley rats weighing 275-299 g. Tissues were immediately transferred to ice-cold Krebs-Henseleit solution, which had been aerated with 95% O2 and 5% CO2 for 30 minutes. Following removal of connective tissue, aortic sections were cut into 4 rings (˜2 mm each) and suspended on 2 L-shaped hooks, with one hook fixed at the bottom of the tissue bath (Schuler Organ Bath, Harvard Apparatus) and the other connected to a force transducer (F30 Force Transducer, Harvard Apparatus). Baths contained Krebs Henseleit solution (10 mL) heated to 37° C. and aerated with 95% O2 and 5% CO2. Rings were brought to an initial tension of 0.3-0.5 g and gradually raised to a resting tension of 1.0 g over 60 minutes. Rings were rinsed with Krebs Henseleit solution (heated to 37° C. and aerated with 95% O2 and 5% CO2) at 15 minute intervals until a stable baseline was obtained. Rings were considered to be stable after a resting tension of 1.0 g was maintained (for approximately 10 minutes) without need for adjustment. Rings were then contracted with 100 ng/mL phenylephrine by adding 100 uL of a 10 μg/mL phenylephrine stock solution. Tissues achieving a stable contraction were then treated in a cumulative, dose dependent manner with test compounds prepared in dimethylsulfoxide (DMSO). In some cases, tissues were rinsed three times over a 5 minute period with Krebs-Heinseleit's solution (heated to 37° C. and aerated with 95% O2 and 5% CO2), allowed to stabilize at baseline, and then used for characterization of other test articles or DMSO effects. All data were collected using the HSE-ACAD software provided by Harvard Apparatus. […] EC50 values were calculated from concentration-response curves generated with GraphPad Prism Software.

[4] = read-out: HEK WC Assay (% Emax at 10 μM with 10 uM SNP)
[5] = read-out: HEK WC Assay (% Emax at 30 μM with 10 uM SNP)

Row | SMILES | HEK WC Assay (fold increase at 10 μM) [1] | HEK WC Assay (fold increase at 30 μM) [1] | Emax at 10 µM [2] | Emax at 30 µM [2] | sGC Enzyme (specific activity at 10 μM) [3] | sGC Enzyme (fold increase at 10 μM without SNP) [3] | sGC Enzyme (specific activity at 30 μM) [3] | sGC Enzyme (fold increase at 30 μM without SNP) [3] | HEK WC Assay (fold increase at 30 μM in the absence of SNP) [1] | HEK WC Assay (fold increase at 30 μM in the presence of 10 μM SNP) [2] | EC50 [2] | Emax [2, 4] | Emax [2, 5] | inhibition at 1 µM (Thoracic aortic rings) | inhibition at 3 µM (Thoracic aortic rings) | EC50 (Thoracic aortic rings) | inhibition at 10 µM (Thoracic aortic rings)
1 | Fc1ccccc1Cn1nc(-c2ncccn2)cc1-c1cccnc1 [Compound I-10] | A (A = no increase to <1 fold increase) | A (A = no increase to <1 fold increase) | 0 to 10% | 0 to 10% | D (D = 200 to <500) | B (B = 2 to <5 fold increase) | D (D = 200 to <500) | B (B = 2 to <5 fold increase) |  |  |  |  |  |  |  |  | 
2 | Fc1ccccc1Cn1nc(-c2ccccn2)cc1-c1ccncc1 [Compound I-11] | A (A = no increase to <1 fold increase) | A (A = no increase to <1 fold increase) | 0 to 10% | 0 to 10% |  | A (A = no increase to <2 fold increase) | C (C = 100 to <200) | A (A = no increase to <2 fold increase) |  |  |  |  |  |  |  |  | 
3 | COc1cccc(-c2cc(-c3ncccn3)n(Cc3ccccc3F)n2)n1 [Compound I-15] | A (A = no increase to <1 fold increase) | A (A = no increase to <1 fold increase) | 0 to 10% | 0 to 10% | C (C = 100 to <200) | A (A = no increase to <2 fold increase) | C (C = 100 to <200) | A (A = no increase to <2 fold increase) |  |  |  |  |  |  |  |  | 
4 | Fc1ccccc1Cn1nc(-c2ccccn2)cc1-c1ccncn1 [Compound I-21] | A (A = no increase to <1 fold increase) | A (A = no increase to <1 fold increase) | 0 to 10% | 10 to 20% | C (C = 100 to <200) | A (A = no increase to <2 fold increase) | C (C = 100 to <200) | A (A = no increase to <2 fold increase) |  |  |  |  |  |  |  |  | 
5 | Fc1ccccc1Cn1nc(-c2ncccn2)cc1-c1cnc2ccoc2c1 [Compound I-32] | A (A = no increase to <1 fold increase) | A (A = no increase to <1 fold increase) | 0 to 10% | 0 to 10% | C (C = 100 to <200) | A (A = no increase to <2 fold increase) | D (D = 200 to <500) | A (A = no increase to <2 fold increase) |  |  |  |  |  |  |  |  | 
6 | Fc1ccccc1Cn1nc(-c2ccccn2)cc1-c1cnccn1 [Compound I-34] | A (A = no increase to <1 fold increase) | A (A = no increase to <1 fold increase) | 0 to 10% | 0 to 10% | B (B = 50 to <100) | A (A = no increase to <2 fold increase) | C (C = 100 to <200) | A (A = no increase to <2 fold increase) |  |  |  |  |  |  |  |  | 
7 | Nc1ccnc(-c2cc(-c3ccccn3)nn2Cc2ccccc2F)n1 [Compound I-41] | A (A = no increase to <1 fold increase) | A (A = no increase to <1 fold increase) | 0 to 10% | 0 to 10% | B (B = 50 to <100) | A (A = no increase to <2 fold increase) | C (C = 100 to <200) | B (B = 2 to <5 fold increase) |  |  |  |  |  |  |  |  | 
8 | COC(=O)Nc1cnc(-c2cc(-c3ccon3)n(Cc3ccccc3F)n2)nc1N [Compound I-142] |  |  |  |  |  |  |  |  | E (E = 10 to <20 fold increase) | F (F = 20 to <30 fold increase) | < 20 µM | 100 to 120% | 100 to 120% | 80 to 100% | 100 to 120% | < 2 µM | 
9 | Nc1nc(-c2cc(-c3ncco3)n(Cc3ccccc3F)n2)ncc1F [Compound I-147] |  |  |  |  |  |  |  |  | D (D = 5 to <10 fold increase) | E (E = 10 to <20 fold increase) | < 20 µM | 80 to 100% | 60 to 80% | 60 to 80% | 80 to 100% | < 2 µM | 80 to 100%
10 | CC(C)(C)OC(=O)Nc1cnc(-c2cc(-c3ncco3)n(Cc3ccccc3F)n2)nc1N [Compound I-148] |  |  |  |  |  |  |  |  | D (D = 5 to <10 fold increase) | E (E = 10 to <20 fold increase) | < 20 µM | 100 to 120% | 100 to 120% | 80 to 100% | 80 to 100% | < 2 µM | 
11 | CC(C)COC(=O)Nc1cnc(-c2cc(-c3ccon3)n(Cc3ccccc3F)n2)nc1N [Compound I-150] |  |  |  |  |  |  |  |  | E (E = 10 to <20 fold increase) | E (E = 10 to <20 fold increase) | < 20 µM | 80 to 100% | 80 to 100% | 40 to 60% | 80 to 100% | < 2 µM | 80 to 100%
12 | CC(=O)Nc1cnc(-c2cc(-c3ncco3)n(Cc3ccccc3F)n2)nc1N [Compound I-151] |  |  |  |  |  |  |  |  | C (C = 2 to <5 fold increase) | D (D = 5 to <10 fold increase) | < 20 µM | 60 to 80% | 60 to 80% | 80 to 100% | 100 to 120% | < 2 µM | 100 to 120%
